Measurements from patent US11795169B2, “MAP4K4 inhibitors” (IMPERIAL COLLEGE INNOVATIONS LIMITED, priority 2017, dated 2023).
Counter-ions that a name gives are not always drawn.

Target: human MAP4K4 kinase domain (Homo sapiens (Human), UniProt O95819)
Experiment: MAP4K4 kinase activity, CisBio HTRF Transcreener ADP assay
Format: biochemical
Details: ATP at Km (10 μM), 0.5 nM kinase domain, 2 h; read-out: MAP4K4
From the text: Compounds of the present invention were screened for their inhibitory activity against MAP4K4, versus selected off-target hits found with early members of this chemical series. MAP4K4 kinase activity was monitored using the CisBio HTRF Transcreener ADP assay, acompetitive immunoassay with a reproducible Z′>0.6. In the detection step, endogenous ADP and d2-labeled ADP compete for binding an anti-ADP monoclonal antibody labelled with Eu^3+ cryptate. A ratiometric fluorescent read-out is used at 665 and 620 nm. […] Assays were run in Greiner low volume plates with a final reaction volume of 10 μl. The MAP4K4 inhibition data are provided in Table 33 below for selected compounds of the present invention. The data has been categorised based on the IC50 value of the compound as “A”, “B” or “C”.

Chain of human MAP4K4 kinase domain (O95819 25-289): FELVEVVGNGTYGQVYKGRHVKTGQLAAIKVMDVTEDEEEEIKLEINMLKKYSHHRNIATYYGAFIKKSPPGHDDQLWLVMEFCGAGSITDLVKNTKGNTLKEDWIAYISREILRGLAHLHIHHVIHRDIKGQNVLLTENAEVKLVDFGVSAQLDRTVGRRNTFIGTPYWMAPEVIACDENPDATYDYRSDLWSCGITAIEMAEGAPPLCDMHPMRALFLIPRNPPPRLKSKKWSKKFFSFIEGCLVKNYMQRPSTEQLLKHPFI

Row | SMILES | IC50 [nM]
1 | CN1CCN(CCCOc2ccc(-c3cn(-c4ccccc4)c4nc[nH]c(=O)c34)cc2)CC1 [Ex-35] | ≤ 100
2 | O=c1[nH]cnc2c1c(-c1ccccc1)cn2-c1ccc(Cn2ccnc2)cc1 [Ex-4] | > 1000
3 | CN1CCN(c2ccc(-c3cn(-c4ccccc4)c4nc[nH]c(=O)c34)cc2)C1=O [Ex-29] | ≤ 100
4 | O=C1CCCN1c1ccc(-c2cn(-c3ccccc3)c3nc[nH]c(=O)c23)cc1 [Ex-19] | ≤ 100
5 | CN1CCN(CC(=O)Nc2ccc(-c3cn(-c4ccccc4)c4nc[nH]c(=O)c34)cc2)CC1 [Ex-17] | ≤ 100
6 | O=c1[nH]cnc2c1c(-c1c(F)cccc1F)cn2-c1ccccc1 [Ex-34] | 100 to 1000
7 | CN(C)CCNC(=O)c1cccc(-c2cn(-c3ccccc3)c3nc[nH]c(=O)c23)c1 [Ex-21] | > 1000
8 | CN(C)Cc1cccc(-c2cn(-c3ccccc3)c3nc[nH]c(=O)c23)c1 [Ex-31] | > 1000
9 | COc1cccc(-n2cc(-c3ccc(OCC(O)CN4CCOCC4)cc3)c3c(=O)[nH]cnc32)c1 (stereo not drawn) [Ex-41, 5-[4-(2-Hydroxy-3-morpholin-4-yl-propoxy)-phenyl]-7-(3-methoxy-phenyl)-3,7-dihydro-pyrrolo[2,3-d]pyrimidin-4-one] | ≤ 100
10 | CN(C)CCCOc1ccc(-c2cn(-c3ccccc3)c3nc[nH]c(=O)c23)cc1 [Ex-26] | ≤ 100
11 | O=c1[nH]cnc2c1c(-c1ccc(OCCCO)cc1)cn2-c1ccccc1 [Ex-36] | ≤ 100
12 | O=c1[nH]cnc2c1c(-c1ccc(Cn3ccnc3)cc1)cn2-c1ccccc1 [Ex-13] | ≤ 100
13 | O=c1[nH]cnc2c1c(-c1ccc(OCC(O)CN3CCOCC3)cc1)cn2-c1ccccc1 (stereo not drawn) [Ex-42] | ≤ 100
14 | CS(=O)(=O)c1ccc(-n2cc(-c3ccccc3)c3c(=O)[nH]cnc32)cc1 [Ex-3] | > 1000
15 | CC(C)(O)COc1ccc(-c2cn(-c3ccccc3)c3nc[nH]c(=O)c23)cc1C#N [Ex-7, 2-(2-Hydroxy-2-methylpropoxy)-5-(4-oxo-7-phenyl-4,7-dihydro-3H-pyrrolo[2,3-d]pyrimidin-5-yl)benzonitrile] | ≤ 100
16 | CN1CCN(CC(=O)Nc2ccc(-c3cn(-c4cccc(F)c4)c4nc[nH]c(=O)c34)cc2)CC1 [Ex-18] | ≤ 100
17 | COC(COc1ccc(-c2cn(-c3ccccc3)c3nc[nH]c(=O)c23)cc1)CN1CCOCC1 (stereo not drawn) [Ex-28] | ≤ 100

Row | SMILES | IC50 [nM]
18 | O=C1CCCCN1c1ccc(-c2cn(-c3ccccc3)c3nc[nH]c(=O)c23)cc1 [Ex-20] | 100 to 1000
19 | CN(Cc1cccc(-c2cn(-c3ccccc3)c3nc[nH]c(=O)c23)c1)C(=O)OC(C)(C)C [Ex-32] | 100 to 1000
20 | NC(=O)c1ccc(-n2cc(-c3ccccc3)c3c(=O)[nH]cnc32)cc1 [Ex-6] | 100 to 1000
21 | O=C1COCCN1CC(O)COc1ccc(-c2cn(-c3ccccc3)c3nc[nH]c(=O)c23)cc1 (stereo not drawn) [Ex-38] | ≤ 100
22 | COc1ccc(-c2cn(-c3ccccc3)c3nc[nH]c(=O)c23)cc1 [Ex-23] | ≤ 100
23 | CN(C)CC(=O)Nc1cccc(-c2cn(-c3ccccc3)c3nc[nH]c(=O)c23)c1 [Ex-24] | > 1000
24 | NC(=O)c1cccc(-n2cc(-c3ccccc3)c3c(=O)[nH]cnc32)c1 [Ex-2] | ≤ 100
25 | CC(=O)Nc1ccc(-c2cn(-c3ccccc3)c3nc[nH]c(=O)c23)cc1 [Ex-9] | ≤ 100
26 | CN(C)CCOc1ccc(-c2cn(-c3ccccc3)c3nc[nH]c(=O)c23)cc1 [Ex-15] | ≤ 100
27 | CC(=O)Nc1cccc(-c2cn(-c3ccccc3)c3nc[nH]c(=O)c23)c1 [Ex-12] | 100 to 1000
28 | O=C(CN1CCOCC1)Nc1ccc(-c2cn(-c3ccccc3)c3nc[nH]c(=O)c23)cc1 [Ex-16] | ≤ 100
29 | CN(C)CCN1CCN(c2ccc(-c3cn(-c4ccccc4)c4nc[nH]c(=O)c34)cc2)C1=O [Ex-33] | ≤ 100
30 | CC(C)(O)CN1CCN(c2ccc(-c3cn(-c4ccccc4)c4nc[nH]c(=O)c34)cc2)C1=O [Ex-37] | ≤ 100
31 | O=c1[nH]cnc2c1c(-c1ccc(OCC(O)CN3CCOCC3)cc1)cn2-c1cccc(F)c1 (stereo not drawn) [Ex-43] | ≤ 100
32 | N#Cc1cccc(-c2cn(-c3ccccc3)c3nc[nH]c(=O)c23)c1 [Ex-8] | ≤ 100
33 | CCOC(=O)Cc1ccc(-c2cn(-c3ccccc3)c3nc[nH]c(=O)c23)cc1 [Ex-10, [4-(4-oxo-7-phenyl-4,7-dihydro-3H-pyrrolo[2,3-d]pyrimidin-5-yl)-phenyl]-acetic acid ethyl ester] | ≤ 100

Further lines, results first:

Row | IC50 [nM] | SMILES
34 | > 1000 | C[C@H](O)COc1ccc(-c2cn(-c3ccccc3)c3c(=O)[nH]cnc23)cc1 [Ex-93]
35 | ≤ 100 | CC(C)(O)COc1ccc(-c2cn(-c3ccccc3)c3nc[nH]c(=O)c23)cc1 [Ex-64]
36 | > 1000 | CC(C)(O)COc1ccc(-c2cn(-c3ccccc3)c3c(=O)[nH]cnc23)cc1 [Ex-87]
37 | 100 to 1000 | CN1CC(COc2ccc(-c3cn(-c4ccccc4)c4nc[nH]c(=O)c34)cc2)C1 [Ex-67]
38 | 100 to 1000 | O=c1[nH]cnc2c(-c3ccc(OCCCN4CCOCC4)cc3)cn(-c3ccccc3)c12 [Ex-84, 7-[4-(3-Morpholin-4-yl-propoxy)-phenyl]-5-phenyl-3,5-dihydro-pyrrolo[3,2-d]pyrimidin-4-one]
39 | ≤ 100 | O=c1[nH]cnc2c1c(-c1ccc(OCC(O)CN3CCS(=O)(=O)CC3)cc1)cn2-c1ccccc1 (stereo not drawn) [Ex-51]
40 | ≤ 100 | O=c1[nH]cnc2c1c(-c1ccc(OCCO)cc1)cn2-c1ccccc1 [Ex-70]
41 | 100 to 1000 | O=c1[nH]cnc2c1c(-c1cccc(OCCO)c1)cn2-c1ccccc1 [Ex-47]
42 | 100 to 1000 | N#Cc1ccc(-c2cn(-c3ccccc3)c3c(=O)[nH]cnc23)cc1 [Ex-99]
43 | ≤ 100 | O=c1[nH]cnc2c1c(-c1ccc(OCC3CNC3)cc1)cn2-c1ccccc1 [Ex-80, 5-[4-(Azetidin-3-ylmethoxy)-phenyl]-7-phenyl-3,7-dihydro-pyrrolo[2,3-d]pyrimidin-4-one-formate salt]
44 | ≤ 100 | O=c1[nH]cnc2c1c(-c1ccc(OCC3(O)COC3)cc1)cn2-c1ccccc1 [Ex-69]
45 | > 1000 | CNCc1cccc(-c2cn(-c3ccccc3)c3nc[nH]c(=O)c23)c1 [Ex-79]
46 | 100 to 1000 | O=C(O)c1ccc(-c2cn(-c3ccccc3)c3c(=O)[nH]cnc23)cc1 [Ex-102]
47 | ≤ 100 | O=c1[nH]cnc2c(-c3ccccc3)cn(-c3ccccc3)c12 [Ex-97]
48 | ≤ 100 | CN1CCC(Oc2ccc(-c3cn(-c4ccccc4)c4c(=O)[nH]cnc34)cc2)CC1 [Ex-86]
49 | > 1000 | O=c1[nH]cnc2c(-c3ccc(OCC4CCNC4)cc3)cn(-c3ccccc3)c12 (stereo not drawn) [Ex-94, 5-Phenyl-7-[4-(pyrrolidin-3-ylmethoxy)-phenyl]-3,5-dihydro-pyrrolo[3,2-d]pyrimidin-4-one]
50 | ≤ 100 | O=C(Nc1ccc(-c2cn(-c3ccccc3)c3nc[nH]c(=O)c23)cc1)N1CCC(O)C1 (racemic) [compound 39]
51 | ≤ 100 | O=C(O)Cc1ccc(-c2cn(-c3ccccc3)c3nc[nH]c(=O)c23)cc1 [Ex-82, [4-(4-Oxo-7-phenyl-4,7-dihydro-3H-pyrrolo[2,3-d]pyrimidin-5-yl)-phenyl]-acetic acid]
52 | ≤ 100 | COc1ccc(-n2cc(-c3ccc(OCCCN(C)C)cc3)c3nc[nH]c(=O)c32)cc1 [Ex-85]
53 | 100 to 1000 | NCc1ccc(-c2cn(-c3ccccc3)c3nc[nH]c(=O)c23)cc1 [Ex-74, 5-(4-Aminomethyl-phenyl)-7-phenyl-3,7-dihydro-pyrrolo[2,3-d]pyrimidin-4-one]

Row | IC50 [nM] | SMILES
54 | > 1000 | CCOC(=O)c1cccc(-c2cn(-c3ccccc3)c3c(=O)[nH]cnc23)c1 [Ex-96, 3-(4-Oxo-5-phenyl-4,5-dihydro-3H-pyrrolo[3,2-d]pyrimidin-7-yl)-benzoic acid ethyl ester]
55 | 100 to 1000 | N#Cc1cccc(-c2cn(-c3ccccc3)c3c(=O)[nH]cnc23)c1 [Ex-100]
56 | ≤ 100 | O=c1[nH]cnc2c1c(-c1ccc(N3CCCC3)cc1)cn2-c1ccccc1 [Ex-62]
57 | ≤ 100 | O=c1[nH]cnc2c1c(-c1cccc(CO)c1)cn2-c1ccccc1 [Ex-45]
58 | > 1000 | O=C(NCCO)c1cccc(-c2cn(-c3ccccc3)c3nc[nH]c(=O)c23)c1 [Ex-44]
59 | ≤ 100 | NCCOc1ccc(-c2cn(-c3ccccc3)c3nc[nH]c(=O)c23)cc1 [Ex-78]
60 | ≤ 100 | C[C@H](O)COc1ccc(-c2cn(-c3ccccc3)c3nc[nH]c(=O)c23)cc1 [Ex-53]
61 | ≤ 100 | O=C1N(CCO)CCN1c1ccc(-c2cn(-c3ccccc3)c3nc[nH]c(=O)c23)cc1 [Ex-55, 5-{4-[3-(2-Hydroxy-ethyl)-2-oxo-imidazolidin-1-yl]-phenyl}-7-phenyl-3,7-dihydro-pyrrolo[2,3-d]pyrimidin-4-one]
62 | ≤ 100 | NCC(=O)Nc1ccc(-c2cn(-c3ccccc3)c3nc[nH]c(=O)c23)cc1 [Ex-76]
63 | ≤ 100 | COCCOc1ccc(-c2cn(-c3cccc(F)c3)c3nc[nH]c(=O)c23)cc1 [Ex-65]
64 | ≤ 100 | Cc1cc(OCCO)ccc1-c1cn(-c2ccccc2)c2nc[nH]c(=O)c12 [Ex-57]
65 | 100 to 1000 | NCc1cccc(-c2cn(-c3ccccc3)c3nc[nH]c(=O)c23)c1 [Ex-75]
66 | 100 to 1000 | O=c1[nH]cnc2c1c(-c1ccccc1F)cn2-c1ccccc1 [Ex-66]
67 | ≤ 100 | CNCC(=O)Nc1ccc(-c2cn(-c3ccccc3)c3nc[nH]c(=O)c23)cc1 [Ex-77]
68 | ≤ 100 | CN(C)CC(O)COc1ccc(-c2cn(-c3ccccc3)c3nc[nH]c(=O)c23)cc1 (stereo not drawn) [Ex-46]
69 | 100 to 1000 | O=c1[nH]cnc2c(-c3ccc(OCC(O)CN4CCOCC4)cc3)cn(-c3ccccc3)c12 (stereo not drawn) [Ex-89]
70 | ≤ 100 | CN1CCN(CC(O)COc2ccc(-c3cn(-c4ccccc4)c4nc[nH]c(=O)c34)cc2)CC1=O (stereo not drawn) [Ex-50]
71 | ≤ 100 | CNCCC(=O)Nc1ccc(-c2cn(-c3ccccc3)c3nc[nH]c(=O)c23)cc1 [Ex-81]
72 | 100 to 1000 | CN(CC(O)COc1ccc(-c2cn(-c3ccccc3)c3c(=O)[nH]cnc23)cc1)C1CC1 (stereo not drawn) [Ex-90]
